Holding throughout (format): cell-based, rat
Test [1] concerns INS-1E cells. Kind of test: Insulin content (RIA) of INS-1E lysates. The conditions noted are these: 24 h. On the procedure:
(§1) FIG. 7, comprising FIG. 7A through FIG. 7G, depicts the evaluation of the biological activity of HSA-28P in INS-1E cells. FIG. 7A depicts dose-response analysis of the effect of HSA-28P on the rate of insulin secretion in INS-1E cells. The INS-1E cells were grown and trypsinized as described in Methods. Subsequently, cells were mixed with the indicated concentrations of HSA-28P (red columns), non-relevant peptide nanoparticles (NRPNP, green columns), and naked nanoparticles (NP, blue columns) and were seeded in 12-well plates. After 24 h the cells were taken to a GSIS in the presence of 2.5 mM (weak color bars) or 16.7 mM (strong color bars) glucose. […] INS-1E cells were treated as described in Panel D. Cells were detached by trypsin and counted as described in Methods and then were visualized with a Cells Sense Live Imaging microscope. […]
The lysis buffer contained 50 mmol/L Tris-HCl, pH 7.5, 1 mmol/L EDTA, 1 mmol/L EGTA, 1 mmol/L Na3VO4, 150 mmol/L NaCl, 50 mmol/L NaF, 10 mmol/L sodium-glycerophosphate, 5 mmol/L sodium pyrophosphate, and 1 mmol/L PMSF, supplemented with 0.1% (v/v) IGEPAL, 0.1% (v/v) 2-β-mercaptoethanol, and protease inhibitor cocktail (1:100 dilution). […] Protein content in the supernatant was determined by Bradford analysis, using a BSA standard dissolved in the same buffer. […]

For test [2], the system named is INS-1E cells. The test can be described thus: MTT cell viability under glucose oxidase-induced oxidative stress. On the procedure: as §1, with “glucose. FIG. 7B depicts time-course analysis of the effect of HSA-28P on the rate of insulin secretion in INS-1E cells. The INS-1E cells were prepared for the experiment as described above with 1.34 μM of both HSA-28P or NRPNP, and 0.76 μg/ml of NP.” for “glucose.”
Briefly, cells were incubated with MTT (2 mg/mL) in growth medium for 30 min at 37° C. […] Absorbance at 570 nm was measured in a SpectraMax M5 spectrophotometer (Sunnyvale, Calif., USA). The obtained results were normalized by total protein content in culture cells, which was measured using the Bradford reagent. […]

The test system of test [3] is INS-1E cells. Kind of test: Cell counting (trypan blue) / proliferation and cluster formation. The conditions noted are these: 24 h. Here is the method:
as §1, with “glucose. FIG. 7B depicts time-course analysis of the effect of HSA-28P on the rate of insulin secretion in INS-1E cells. The INS-1E cells were prepared for the experiment as described above with 1.34 μM of both HSA-28P or NRPNP, and 0.76 μg/ml of NP. After incubation for the time indicated in the graph, the cells were taken to a GSIS as described in Methods. FIG. 7C depicts the measurement of insulin content. The RIA-assay was performed for INS-1E lysates.” for “glucose.”
Cells were detached by trypsin and colored by Trypan blue. Only uncolored cells were counted. […]

The subject of test [4] is INS-1E cells. Kind of test: Insulin secretion of INS-1E cells after 5 h incubation with peptidomimetic agent. On the procedure: FIG. 22, comprising FIG. 22A through FIG. 22C, depicts experimental results of incubation of INS1E cells with peptidomimetic agent. A peptidomimetic agent was designed to mimic neuroligin's binding site for neurexin. Monomers and dimers had no effect on insulin secretion. Multiple dimers were conjugated to PEG-2000 to simulate clustering (reagent HSA-112). Dimers were also clustered on nanoparticles (HSA-637). FIG. 22A depicts INS-1E cells were incubated for 5 h with HSA-112 (blue columns) or HSA-637 (purple) at different concentrations or with vehicle alone (black), washed, and then tested for insulin secretion at 3 mM glucose (striped columns) or at 20 mM glucose (solid columns). […] FIG. 22B depicts a time course: insulin secretion was analyzed after the number of hours indicated following a 5 h incubation with 100 μM HSA-112 (blue), 500 nM HSA-637 (purple) or vehicle alone (black). Incubations were with 3 mM glucose (striped columns) or 20 mM glucose (solid columns). FIG. 22C depicts microscopy where INS-1E cells were incubated with HSA-637 conjugated to a fluorescent dye (Cy5, red) and then washed. Membranes were stained with Alexa Fluor 488 (green). For better visualization, microscopy was in hypotonic saline causing the INS-1E cells to swell and become more rounded.

Ends that are not written are not given here.

Turning to “HSA-112: HSA-28 dimer formed by bridging two HSA-28 monomers via amide bond formation with active ester PEG2,000 (QQGEFLNYD-NH2; not fully specified (N-terminus); also: dimer of two HSA-28 monomers bridged via amide bonds with active ester PEG2000)”, the “effect on cellular / total insulin content” value in the test on INS-1E cells [1] was “did not affect the cellular insulin content”. The “cell protective effect compared with trolox” value in the test with INS-1E cells [2] (glucose oxidase-induced oxidative stress) was “almost identical to that of the well-known antioxidant (trolox)”. The “effect on cell viability under oxidative stress” value in the test with INS-1E cells [2] (glucose oxidase/glucose system, 24 h) is reported as “cytoprotective effect”. The “amount of cells / proliferation rate” value in the test on INS-1E cells [3] was “higher than that in the control dishes”. Moreover, in the test on INS-1E cells [4] (5 h incubation, 20 mM glucose, p<0.05), the “concentration that significantly increased glucose-stimulated insulin secretion” value is at least 20 µM. Further, in the test with INS-1E cells [4] (INS-1 β cells), the “effect on insulin secretion” value is given as “increased insulin secretion in a dose-dependent manner”.

The values above are taken from patent publication US20230079439A1, “Compositions and Methods for Enhancing Beta Cell Maturation, Health and Function” (THE REGENTS OF THE UNIVERSITY OF CALIFORNIA, priority 2016, published 2023).
